This note sets out measurements from patent publication US9249131B2, “Modulators of ATP-binding cassette transporters” (Vertex Pharmaceuticals Incorporated, priority 2003, dated 2016).

The target in this test is T1, ΔF508-CFTR (Homo sapiens, UniProt P13569, DEL508-508).
T1 construct: expressed in transfected cells; host or cells: NIH3T3 mouse fibroblasts stably expressing ΔF508-CFTR for the optical, whole-cell and single-channel assays; Fisher rat epithelial (FRT) cells for Ussing chamber follow-up
T1 sequence (P13569 with tags, fused parts or gaps DEL508-508): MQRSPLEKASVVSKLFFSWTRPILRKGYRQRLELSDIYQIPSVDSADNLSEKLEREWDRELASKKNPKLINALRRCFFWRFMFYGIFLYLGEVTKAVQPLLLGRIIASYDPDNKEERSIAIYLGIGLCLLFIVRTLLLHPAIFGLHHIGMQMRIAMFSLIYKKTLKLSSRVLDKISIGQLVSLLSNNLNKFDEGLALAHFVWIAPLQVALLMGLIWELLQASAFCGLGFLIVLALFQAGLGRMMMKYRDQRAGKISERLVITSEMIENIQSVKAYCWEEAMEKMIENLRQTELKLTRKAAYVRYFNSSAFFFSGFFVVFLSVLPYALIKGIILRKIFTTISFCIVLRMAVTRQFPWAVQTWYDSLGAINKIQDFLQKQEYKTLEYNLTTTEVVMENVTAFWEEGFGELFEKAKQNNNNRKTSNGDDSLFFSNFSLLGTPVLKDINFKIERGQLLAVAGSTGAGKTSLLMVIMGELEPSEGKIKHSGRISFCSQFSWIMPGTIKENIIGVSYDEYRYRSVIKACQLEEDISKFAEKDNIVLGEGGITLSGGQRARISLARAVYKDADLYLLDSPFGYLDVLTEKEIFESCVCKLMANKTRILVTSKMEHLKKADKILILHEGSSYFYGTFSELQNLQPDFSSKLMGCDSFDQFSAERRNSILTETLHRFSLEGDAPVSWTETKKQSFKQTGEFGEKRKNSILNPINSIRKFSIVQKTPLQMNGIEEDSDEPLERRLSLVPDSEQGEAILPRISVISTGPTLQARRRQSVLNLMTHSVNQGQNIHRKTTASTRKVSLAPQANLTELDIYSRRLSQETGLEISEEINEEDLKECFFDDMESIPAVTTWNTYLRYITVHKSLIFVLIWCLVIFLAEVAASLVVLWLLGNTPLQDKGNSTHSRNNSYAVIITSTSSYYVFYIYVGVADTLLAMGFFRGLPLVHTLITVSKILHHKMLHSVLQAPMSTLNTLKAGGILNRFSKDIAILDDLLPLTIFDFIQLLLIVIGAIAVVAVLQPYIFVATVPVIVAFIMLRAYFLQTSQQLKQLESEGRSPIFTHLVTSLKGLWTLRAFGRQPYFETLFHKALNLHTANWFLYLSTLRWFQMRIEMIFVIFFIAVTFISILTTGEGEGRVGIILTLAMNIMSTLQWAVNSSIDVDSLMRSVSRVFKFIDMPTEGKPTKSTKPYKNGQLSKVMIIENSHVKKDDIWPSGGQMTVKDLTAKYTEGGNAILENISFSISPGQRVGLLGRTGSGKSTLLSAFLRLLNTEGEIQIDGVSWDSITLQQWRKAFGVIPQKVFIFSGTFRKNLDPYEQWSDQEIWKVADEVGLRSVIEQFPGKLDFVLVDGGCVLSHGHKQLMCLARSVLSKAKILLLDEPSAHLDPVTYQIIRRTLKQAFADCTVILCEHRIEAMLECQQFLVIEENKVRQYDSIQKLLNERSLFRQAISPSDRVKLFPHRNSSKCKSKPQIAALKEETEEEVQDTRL
The test is described as follows: Assays for ΔF508-CFTR correction and potentiator properties (membrane potential optical and electrophysiological methods). Format: cell-based. The following applies: CFTR modulation; for % Activity: % Efficacy; for EC50: tested using the above methods. In outline: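 NIH3T3 mouse fibroblasts stably expressing ΔF508-CFTR were used, with membrane potential read by DiSBAC2(3)/CC2-DMPE FRET on VIPR. Correctors: 16 h compound exposure at 37 °C, then activation with forskolin plus genistein in Cl⁻-free medium. Potentiators: cells held 24 h at 27 °C, compound added in Cl⁻-free medium, 2-10 μM forskolin 22 s later (final Cl⁻ 28 mM).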

Consider `O=C(Nc1ncc(Cc2ccc(Cl)cc2)o1)C(c1ccccc1)c1ccccc1` [compound 143], for which the “% Activity” value is reported as “++ (“++” means between 25% to 100%)” and the EC50 was in the range of 25 to 60 µM.

Consider `O=C(Nc1ncc(Cc2ccc(Cl)cc2)o1)C1Cc2ccccc21` (centres unmarked) [compound 145], for which the “% Activity” value is given as “++ (“++” means between 25% to 100%)” and the EC50 was in the range of 10 to 25 µM.

On to `CCC(C(=O)Nc1ncc(Cc2ccc(Cl)cc2)o1)c1ccccc1` (centres unmarked) [compound 146], for which the “% Activity” value is on record as “++ (“++” means between 25% to 100%)” and the EC50 is less than 10 µM.

On to `CCC(C)C(C(=O)Nc1ncc(Cc2ccc(Cl)cc2)o1)c1ccccc1` (centres unmarked) [compound 147], for which the “% Activity” value was “++ (“++” means between 25% to 100%)” and the 50% effective concentration (EC50) is less than 10 µM.

Consider `O=C(Nc1ncc(Cc2ccc(Cl)cc2)o1)C(c1ccccc1)C1CCCC1` (centres unmarked) [compound 148], for which the “% Activity” value was “++ (“++” means between 25% to 100%)” and the EC50 is less than 10 µM.

On to `O=C(Cc1ccccc1)Nc1ncc(Cc2ccc(Cl)cc2)o1` [compound 149], for which the “% Activity” value is recorded as “++ (“++” means between 25% to 100%)” and the half-maximal effective concentration (EC50) was in the range of 10 to 25 µM.

As for `O=C(Nc1ncc(Cc2ccc(Cl)cc2)o1)c1ccccc1` [compound 150], the “% Activity” value is “++ (“++” means between 25% to 100%)” and the EC50 lay within 10 to 25 µM.

For `O=C(Nc1ncc(Cc2cccc(Cl)c2)o1)C(c1ccccc1)C1CCCCC1` (centres unmarked) [compound 151], the “% Activity” value is “++ (“++” means between 25% to 100%)” and the concentration for a half-maximal effect (EC50) is less than 10 µM.

In the case of `O=C(Nc1ncc(Cc2cccc(Cl)c2)o1)C1Cc2ccccc21` (centres unmarked) [compound 152], the “% Activity” value is “++ (“++” means between 25% to 100%)” and the EC50 lay within 10 to 25 µM.

Turning to `CC(C(=O)Nc1ncc(Cc2cccc(Cl)c2)o1)c1ccccc1` (centres unmarked) [compound 153], the “% Activity” value is “++ (“++” means between 25% to 100%)” and the EC50 was less than 10 µM.

Turning to `CCC(C(=O)Nc1ncc(Cc2cccc(Cl)c2)o1)c1ccccc1` (centres unmarked) [compound 154], the “% Activity” value is listed as “++ (“++” means between 25% to 100%)” and the EC50 is less than 10 µM.

On to `CCC(C)C(C(=O)Nc1ncc(Cc2cccc(Cl)c2)o1)c1ccccc1` (centres unmarked) [compound 155], for which the “% Activity” value is “++ (“++” means between 25% to 100%)” and the EC50 is less than 10 µM.

Turning to `O=C(Nc1ncc(Cc2cccc(Cl)c2)o1)C(c1ccccc1)C1CCCC1` (centres unmarked) [compound 156], the “% Activity” value is “++ (“++” means between 25% to 100%)” and the EC50 is less than 10 µM.

For `O=C(Cc1ccccc1)Nc1ncc(Cc2cccc(Cl)c2)o1` [compound 157], the “% Activity” value was “++ (“++” means between 25% to 100%)” and the EC50 was less than 10 µM.

In the case of `O=C(Nc1ncc(Cc2cccc(Cl)c2)o1)c1ccccc1` [compound 158], the “% Activity” value is “++ (“++” means between 25% to 100%)”.

In the case of `O=C(Nc1nc(-c2ccccc2Cl)cs1)c1ccccc1` [compound 159], the “% Activity” value is “++ (“++” means between 25% to 100%)” and the EC50 is less than 10 µM.

With `O=C(Nc1nc(-c2cccc(Cl)c2)cs1)c1ccccc1` [compound 160], the “% Activity” value was “+++ (“+++” means >100%)” and the EC50 is 10 to 25 µM.

For `N#Cc1ccc(-c2csc(NC(=O)c3ccccc3)n2)cc1` [compound 161], the “% Activity” value is given as “++ (“++” means between 25% to 100%)” and the 50% effective concentration (EC50) is 25 to 60 µM.

In the case of `COc1ccc(-c2csc(NC(=O)c3ccccc3)n2)c(OC)c1` [compound 162], the “% Activity” value is “++ (“++” means between 25% to 100%)” and the concentration giving a half-maximal response (EC50) was in the range of 25 to 60 µM.

Turning to `O=C(Nc1nc(-c2ccc(N3CCCC3)cc2)cs1)c1ccccc1` [compound 163], the “% Activity” value is on record as “++ (“++” means between 25% to 100%)” and the half-maximal effective concentration (EC50) fell in the range of 10 to 25 µM.

With `O=C(Nc1nc(-c2ccc3c(c2)OCO3)cs1)c1ccccc1` [compound 164], the “% Activity” value is “++ (“++” means between 25% to 100%)” and the EC50 was 10 to 25 µM.

Regarding `O=C(Nc1nc(-c2ccc(Cl)cc2)c(-c2ccccc2)s1)c1ccccc1` [compound 165], the “% Activity” value is given as “+++ (“+++” means >100%)” and the 50% effective concentration (EC50) is less than 10 µM.

On to `CC(C(=O)Nc1nc(-c2ccccc2)cs1)c1ccccc1` (centres unmarked) [compound 166], for which the “% Activity” value is reported as “++ (“++” means between 25% to 100%)” and the EC50 is 10 to 25 µM.

Consider `CCC(C(=O)Nc1nc(-c2ccccc2)cs1)c1ccccc1` (centres unmarked) [compound 167], for which the “% Activity” value was “++ (“++” means between 25% to 100%)” and the EC50 is less than 10 µM.

In the case of `CC(C)C(C(=O)Nc1nc(-c2ccccc2)cs1)c1ccccc1` (centres unmarked) [compound 168], the “% Activity” value was “++ (“++” means between 25% to 100%)” and the EC50 was less than 10 µM.

On to `O=C(Nc1nc(-c2ccccc2)cs1)C(c1ccccc1)C1CCCC1` (centres unmarked) [compound 169], for which the “% Activity” value was “++ (“++” means between 25% to 100%)” and the EC50 was less than 10 µM.

As to `CCC(C)C(C(=O)Nc1nc(-c2ccccc2)cs1)c1ccccc1` (centres unmarked) [compound 170], the “% Activity” value is “++ (“++” means between 25% to 100%)” and the 50% effective concentration (EC50) was less than 10 µM.

As to `COC(=O)c1ccccc1C(=O)Nc1nc(-c2ccccc2)cs1` [compound 171], the “% Activity” value was “++ (“++” means between 25% to 100%)” and the EC50 is less than 10 µM.

`CC(C(=O)Nc1nc(-c2ccccc2)c(-c2ccccc2)s1)c1ccccc1` (centres unmarked) [compound 172]: the “% Activity” value was “+++ (“+++” means >100%)” and the EC50 is less than 10 µM.

On to `CCC(C(=O)Nc1nc(-c2ccccc2)c(-c2ccccc2)s1)c1ccccc1` (centres unmarked) [compound 173], for which the “% Activity” value is on record as “++ (“++” means between 25% to 100%)” and the 50% effective concentration (EC50) is less than 10 µM.

As to `CC(C)C(C(=O)Nc1nc(-c2ccccc2)c(-c2ccccc2)s1)c1ccccc1` (centres unmarked) [compound 174], the “% Activity” value is “++ (“++” means between 25% to 100%)” and the concentration giving a half-maximal response (EC50) was less than 10 µM.

In the case of `O=C(Nc1nc(-c2ccccc2)c(-c2ccccc2)s1)C(c1ccccc1)C1CCCC1` (centres unmarked) [compound 175], the “% Activity” value is on record as “++ (“++” means between 25% to 100%)” and the EC50 is less than 10 µM.

As for `CCC(C)C(C(=O)Nc1nc(-c2ccccc2)c(-c2ccccc2)s1)c1ccccc1` (centres unmarked) [compound 176], the “% Activity” value is “++ (“++” means between 25% to 100%)” and the EC50 was less than 10 µM.

`O=C(Nc1nc(-c2ccccc2)c(-c2ccccc2)s1)C(c1ccccc1)C1CCCCC1` (centres unmarked) [compound 177]: the “% Activity” value was “++ (“++” means between 25% to 100%)” and the EC50 lay in the range of 10 to 25 µM.

Turning to `COC(=O)c1ccccc1C(=O)Nc1nc(-c2ccccc2)c(-c2ccccc2)s1` [compound 178], the “% Activity” value is given as “+++ (“+++” means >100%)” and the EC50 was less than 10 µM.

As for `COc1ccccc1Cc1cnc(NC(=O)C(c2ccccc2)C2CCCCC2)o1` (centres unmarked) [compound 179], the “% Activity” value is given as “++ (“++” means between 25% to 100%)” and the concentration giving a half-maximal response (EC50) was in the range of 10 to 25 µM.

On to `COc1ccccc1Cc1cnc(NC(=O)C(c2ccccc2)c2ccccc2)o1` [compound 180], for which the “% Activity” value is “++ (“++” means between 25% to 100%)” and the EC50 was in the range of 10 to 25 µM.

On to `COc1ccccc1Cc1cnc(NC(=O)C2Cc3ccccc32)o1` (centres unmarked) [compound 181], for which the “% Activity” value is recorded as “++ (“++” means between 25% to 100%)” and the EC50 lay within 25 to 60 µM.

With `COc1ccccc1Cc1cnc(NC(=O)C(C)c2ccccc2)o1` (centres unmarked) [compound 182], the “% Activity” value is reported as “++ (“++” means between 25% to 100%)” and the concentration for a half-maximal effect (EC50) is 25 to 60 µM.

Regarding `CCC(C(=O)Nc1ncc(Cc2ccccc2OC)o1)c1ccccc1` (centres unmarked) [compound 183], the “% Activity” value was “++ (“++” means between 25% to 100%)” and the half-maximal effective concentration (EC50) was in the range of 25 to 60 µM.

For `CCC(C)C(C(=O)Nc1ncc(Cc2ccccc2OC)o1)c1ccccc1` (centres unmarked) [compound 184], the “% Activity” value is listed as “++ (“++” means between 25% to 100%)” and the concentration giving a half-maximal response (EC50) fell in the range of 10 to 25 µM.

Turning to `COc1ccccc1Cc1cnc(NC(=O)c2ccccc2)o1` [compound 185], the “% Activity” value was “++ (“++” means between 25% to 100%)” and the EC50 is 10 to 25 µM.

For `O=C(Nc1ncc(Cc2ccccc2Cl)o1)C(c1ccccc1)C1CCCCC1` (centres unmarked) [compound 186], the “% Activity” value was “++ (“++” means between 25% to 100%)” and the 50% effective concentration (EC50) lay within 10 to 25 µM.

For the compound `O=C(Nc1ncc(Cc2ccccc2Cl)o1)C(c1ccc(Cl)cc1)c1ccc(Cl)cc1` [compound 187], the “% Activity” value was “++ (“++” means between 25% to 100%)” and the concentration for a half-maximal effect (EC50) is 10 to 25 µM.

With `O=C(Nc1ncc(Cc2ccccc2Cl)o1)C1Cc2ccccc21` (centres unmarked) [compound 188], the “% Activity” value is “++ (“++” means between 25% to 100%)” and the concentration giving a half-maximal response (EC50) fell in the range of 25 to 60 µM.

Regarding `CC(C(=O)Nc1ncc(Cc2ccccc2Cl)o1)c1ccccc1` (centres unmarked) [compound 189], the “% Activity” value is listed as “++ (“++” means between 25% to 100%)” and the EC50 lay within 25 to 60 µM.

As for `CCC(C(=O)Nc1ncc(Cc2ccccc2Cl)o1)c1ccccc1` (centres unmarked) [compound 190], the “% Activity” value was “++ (“++” means between 25% to 100%)” and the EC50 lay in the range of 25 to 60 µM.

In the case of `CCC(C)C(C(=O)Nc1ncc(Cc2ccccc2Cl)o1)c1ccccc1` (centres unmarked) [compound 191], the “% Activity” value is given as “++ (“++” means between 25% to 100%)” and the concentration giving a half-maximal response (EC50) was less than 10 µM.

As to `O=C(Nc1ncc(Cc2ccccc2Cl)o1)C(c1ccccc1)C1CCCC1` (centres unmarked) [compound 192], the “% Activity” value is recorded as “++ (“++” means between 25% to 100%)” and the EC50 lay within 10 to 25 µM.

Take `CC(C)C(C(=O)Nc1ncc(Cc2ccccc2Cl)o1)c1ccccc1` (centres unmarked) [compound 193]: the “% Activity” value is given as “++ (“++” means between 25% to 100%)” and the EC50 lay in the range of 10 to 25 µM.

`O=C(Cc1ccccc1)Nc1ncc(Cc2ccccc2Cl)o1` [compound 194]: the “% Activity” value is recorded as “++ (“++” means between 25% to 100%)” and the concentration giving a half-maximal response (EC50) fell in the range of 25 to 60 µM.
